Structures are written as SMILES. Values after ≈ are worked out from the molar mass of the structure shown. Where two headings read alike, the source gives them in different places. Where only a bound is given, the exact number is not on record here.

In general, MTD refers to the largest dose that counted as tolerated. A word on the Cmax: it is the peak of the concentration-time curve.

The nature of series [1]: Determination of kinetic solubility. The series is classed as physicochemical. To be noted: aqueous buffer, kinetic from dmso stock, 2.5% DMSO, room temperature, read-out: C eff. The procedure:
Compounds, provided as 20 mM or 10 mM stock solutions in 100% DMSO, are diluted 1:40 in aqueous buffer to a concentration of 0.5 mM or 0.25 mM, respectively, with 2.5% residual DMSO. The pH 6.5 buffer consists of 0.05 M 3-(N-morpholino)-2-hydroxypropanesulfonic acid (MOPSO) adjusted to the target pH with NaOH. Buffers at pH 5 and pH 3 are prepared from commercially available concentrates (Titrisol®, Merck). The samples are then incubated at room temperature for 6 hours with gentle shaking followed by vacuum filtration through a MultiScreen DV plate (Durapore hydrophilic PVDF membrane, 0.65 μm pore size, Millipore). The filtrates are adjusted to 20% acetonitrile and analyzed by UV spectroscopy to obtain the absorption maximum and the corresponding wavelength. The concentration of compound in the filtrate is calculated based on the linear part of a standard curve constructed using 3 to 5 known concentrations of each sample in aqueous buffer supplemented with 20% acetonitrile.

Series [2] is described as follows: In vivo pharmacokinetic studies, intravenous administration, Vena saphena screening method. Also noted: species or system male NMRI mice. The settings on record: mice, i.v. administration of the prodrug. The procedure:
The compounds are evaluated in vivo after intravenous administration to male NMRI mice using the Vena saphena screening method.
A dose of 1 mg/kg of the compound is administered i.v. as a bolus (5 mL/kg). Serial blood samples (40 μL) are drawn after puncture of the saphenous vein and collected in a sodium heparin coated capillary tube from two mice per time point at pre-dose, 5 min, 15 min, 30 min, 45 min, 1 h, 2 h, 4 h, 6 h, 8 h and 24 h after intravenous administration.
Blood samples are weighed and the blood quenched in 300 μl stop solution consisting of acetonitrile/water (80:20) and an internal standard.
Blood concentrations of the compound (prodrug) and its parent drug are determined using LC-MS/MS analysis with a limit of quantification of 4 to 40 ng/mL.
Mean arithmetic plasma/blood concentrations are calculated using BLQ (below limit of quantitation)−value of zero if necessary. • Mean AUCinfIV [ng*h/mL] The area under the blood concentration-time curve for a mean normalized (1 mg/kg) iv application from time zero to the last sampling time with a concentration above the limit of quantification. • Mean AUCinfIV is calculated according to the linear trapezoidal rule.
In a study mice are intravenously treated with prodrugs according to the invention, followed by determination of the blood concentration of the drug. […]

The nature of series [3]: Prodrug-drug conversion in full blood. The series is classed as in vitro ADME. To be noted: fresh heparinised rat blood, 37° C., after 120 min. Here is the method:
495 μL fresh heparinised rat blood are spiked with 5 μL of a 1 mg/mL DMSO solution of the analyte (prodrug) at 37° C. After t=0, 5, 15, 30, 60 and 120 min, a blood sample is taken and precipitated. Therefore to 50 μL blood sample or spiked blood sample 150 μL acetonitrile containing an internal standard are added. Samples are centrifuged and 20 μl of the supernatant are injected into the HPLC system for determination of compound concentration (prodrug and parent drug) by LC-MS/MS analysis.
For calibration, a standard curve is prepared with a compound concentration range from 10 to 10000 ng/mL in fresh heparine rat blood. Therefore the blood is spiked (2 μL DMSO solution in 198 μL fresh rat blood) and precipitated like unknown samples.

Series [4] can be described thus: Determination of the maximum tolerated dose (MTD), once weekly i.v. The settings on record: athymic nude, mouse, in vivo, iv. The source says: Mice bearing SW480 colorectal cancer xenografts are used to test and compare the anti-cancer efficacy and tolerability of intravenous (i.v.) application of the prodrug according to Example 1 (S-2,6-diamino-hexanoic acid [4-(2-{2-[4-(2-cyano-ethylamino)-furazan-3-yl]-benzoimidazol-1-yl}-acetyl)-phenyl]-amide hydrochloride salt) and the corresponding parent drug” (3-(4-{1-[2-(4-amino-phenyl)-2-oxo-ethyl]-1H-benzoimidazol-2-yl}-furazan-3-ylamino)-propionitrile) at the maximum tolerated dose level (MTD). Prior to the efficacy experiment, a determination of the MTD of each compound administered once weekly is performed in non-tumor-bearing nude mice of the same strain. Administration of 24.5 mg/kg prodrug and 10 mg/kg parent drug, given as an i.v. bolus once weekly, results in body weight losses >10% in a few animals in both groups. The MTDs in tumor-bearing mice are, therefore, determined to be 15-20% lower, resulting in doses of 21 mg/kg prodrug and 8 mg/kg parent drug. Human colorectal carcinoma cells (SW480) are injected subcutaneously (4×10^6 cells) into the back of 4-8-week old athymic nude mice. Tumor volumes are determined from calliper measurements of tumor length (L) and width (1) according to the formula (L×l^2)/2. Tumors are allowed to expand to a volume of 200 mm^3 (±10%) before treatment start. […] Tumor volume and body weight are monitored daily.

Series [5] relates to SW480 colorectal cancer xenografts. Description: In vivo efficacy studies, SW480 xenografts. Also noted: species or system athymic nude mice. The settings on record: for final T/C (ratio of tumor volume in the treatment group vs. the control group) at day 24: once weekly i.v. for 24 days, prodrug 21 mg/kg, parent drug 8 mg/kg; for final T/C (day 24): three times per week (d1/4/7) i.v. for 24 days, prodrug 7.1 mg/kg. The source says:
Mice bearing SW480 colorectal cancer xenografts are used to test and compare the anti-cancer efficacy and tolerability of intravenous (i.v.) application of the prodrug according to Example 1 (S-2,6-diamino-hexanoic acid [4-(2-{2-[4-(2-cyano-ethylamino)-furazan-3-yl]-benzoimidazol-1-yl}-acetyl)-phenyl]-amide hydrochloride salt) and the corresponding parent drug” (3-(4-{1-[2-(4-amino-phenyl)-2-oxo-ethyl]-1H-benzoimidazol-2-yl}-furazan-3-ylamino)-propionitrile) at the maximum tolerated dose level (MTD). Prior to the efficacy experiment, a determination of the MTD of each compound administered once weekly is performed in non-tumor-bearing nude mice of the same strain. Administration of 24.5 mg/kg prodrug and 10 mg/kg parent drug, given as an i.v. bolus once weekly, results in body weight losses >10% in a few animals in both groups. The MTDs in tumor-bearing mice are, therefore, determined to be 15-20% lower, resulting in doses of 21 mg/kg prodrug and 8 mg/kg parent drug. Human colorectal carcinoma cells (SW480) are injected subcutaneously (4×10^6 cells) into the back of 4-8-week old athymic nude mice. Tumor volumes are determined from calliper measurements of tumor length (L) and width (1) according to the formula (L×l^2)/2. Tumors are allowed to expand to a volume of 200 mm^3 (±10%) before treatment start. The prodrug and parent drug are administered i.v. for 24 days, either once per week at 21 mg/kg and 8 mg/kg, respectively, or three times a week (d1/4/7) at 7.1 mg/kg and 2.7 mg/kg, respectively (both schedules represent the same total weekly dose). Tumor volume and body weight are monitored daily.
FIG. 1 provides a graphical representation of the changes in mean tumor volume during the time of treatment when using the administration schedule, wherein prodrug and parent drug are given once weekly for 24 days at doses of 21 mg/kg and 8 mg/kg, respectively, with appropriate vehicle controls (5 ml/kg) administered with the same schedule. Data points represent mean values+/−SEM (n=7-8 animals, each animal was engrafted with one tumor).
FIG. 2 provides a graphical representation of the changes in mean tumor volume during the time of treatment when using the administration schedule, wherein prodrug and parent drug are given three times per week (d1/4/7) for 24 days at doses of 7.1 mg/kg and 2.7 mg/kg in 5 ml/kg, respectively, with appropriate vehicle controls (5 ml/kg) administered with the same schedule. Data points again represent mean values+/−SEM (n=7-8 animals, each animal was engrafted with one tumor).

Series [6] is described as follows: Pharmacokinetic studies in xenografted mice (plasma and tumor). The settings on record: female, CD-1 Nu/Nu, mouse, iv. The class given is in vivo, CD-1 Nu/Nu female mice. The procedure: CD-1 Nu/Nu female mice implanted with the human colon carcinoma SW480 cell line are treated with either the “Parent Drug”, i.e. 3-(4-{1-[2-(4-amino-phenyl)-2-oxo-ethyl]-1H-benzoimidazol-2-yl}-furazan-3-ylamino)-propionitrile, or “Example 1” i.e. S-2,6-diamino-hexanoic acid [4-(2-{2-[4-(2-cyano-ethylamino)-furazan-3-yl]-benzoimidazol-1-yl}-acetyl)-phenyl]-amide hydrochloride salt, when the tumor size reached approximately 150 mm^3+/−10%. Mice (33 per compound) are treated i.v. […]
After the 4th application (4th week), three mice/sampling point from the “Parent Drug” and “Example 1” groups are culled before and 5 min, 15 min, 30 min, 45 min, 1 h, 1.5 h, 2 h, 4 h, 6 h and 24 h post-administration. Blood is collected by cardiac puncture into K3EDTA tubes kept on ice until centrifugation at 4° C. Plasma is stored at −20° C. At necropsy, tumors are removed and weighed. Tumors are stored at −20° C. Plasma and tumor samples are analyzed by LC-MS/MS. Pharmacokinetic parameters are calculated using WinNonLin 5.2. All results for “Example 1” represent the free base.

Regarding `C[C@H](N)C(=O)Nc1ccc(C(=O)Cn2c(-c3nonc3NCCC#N)nc3ccccc32)cc1` [Example 2], the figures for the solubility kinetic at 6 h in series [1] (pH 3.0 buffer), in series [1] (pH 5.0 buffer) and in series [1] (pH 6.5 buffer) were more than 200 µM, 55 µM (≈ 25.2 µg/mL) and 91 µM (≈ 41.7 µg/mL), respectively.
Regarding `N#CCCNc1nonc1-c1nc2ccccc2n1CC(=O)c1ccc(NS(=O)(=O)O)cc1` [Example 15, [4-(2-{2-[4-(2-Cyano-ethylamino)-furazan-3-yl]-benzoimidazol-1-yl}-acetyl)-phenyl]-sulfamic acid], the “levels of the parent drug after intravenous administration” value in series [2] was “no significant levels”.
Consider `NCC(=O)Nc1nonc1-c1nc2ccccc2n1CC(=O)c1ccc(N)cc1` [Example 13, 2-Amino-N-(4-{1-[2-(4-amino-phenyl)-2-oxo-ethyl]-1H-benzoimidazol-2-yl}-furazan-3-yl)-acetamide], for which the “conversion of prodrug into its parent drug” value in series [3] is recorded as “approximately 74%”.
Regarding `N#CCCNc1nonc1-c1nc2ccccc2n1CC(=O)c1ccc(N)cc1` [Parent Drug, 3-(4-{1-[2-(4-Amino-phenyl)-2-oxo-ethyl]-1H-benzoimidazol-2-yl}-furazan-3-ylamino)-propionitrile, reference compound], the MTD in series [4] (i.v. once weekly, set 15-20% lower than dose causing body weight loss, read-out: MTD in tumor-bearing mice) is 8 mg/kg. Further, the solubility kinetic at 6 h in series [1] (pH 3.0 buffer), in series [1] (pH 5.0 buffer) and in series [1] (pH 6.5 buffer) was less than 10 µM in each case. Further, in series [5], the “final T/C (ratio of tumor volume in the treatment group vs. the control group) at day 24” value was found to be 45%. Also, the “final T/C (day 24)” value in series [5] (parent drug 2.7 mg/kg) is 54%. The “death of animals during treatment” value in series [5] (three times per week i.v., parent drug 2.7 mg/kg) was “one animal in the parent drug-group (three times per week treatment) died at day 10”. Moreover, the Cmax in series [6] (plasma, after i.v. 8 mg/kg Parent Drug, 4th application, xenografted mice, read-out: Cmax of Parent Drug in plasma) stood at 11000 ng/mL; in series [6] (tumor, after i.v. 8 mg/kg Parent Drug, 4th application, xenografted mice, read-out: Cmax of Parent Drug in tumors) it was 3210 ng/mL. Further, the AUC(0-t) was 44800 ng·h/mL in series [6] (plasma, after i.v. 8 mg/kg Parent Drug, xenografted mice, read-out: AUClast of Parent Drug in plasma) and 45500 ng·h/mL in series [6] (tumor, after i.v. 8 mg/kg Parent Drug, xenografted mice, read-out: AUClast of Parent Drug in tumors). The half-life in series [6] (plasma, after i.v. 8 mg/kg Parent Drug, xenografted mice, read-out: T1/2 of Parent Drug in plasma (converted)) was 3.2 h; in series [6] (tumor, after i.v. 8 mg/kg Parent Drug, xenografted mice, read-out: T1/2 of Parent Drug in tumors (converted)), 5.4 h.
Take `CN(C)/C=N/c1ccc(C(=O)Cn2c(-c3nonc3NCCC#N)nc3ccccc32)cc1` [Example 14, N′-[4-(2-{2-[4-(2-Cyano-ethylamino)-furazan-3-yl]-benzoimidazol-1-yl}-acetyl)-phenyl]-N,N-dimethyl-formamidine]: the “levels of the parent drug after intravenous administration” value in series [2] is “no significant levels”.
`N#CCCNc1nonc1-c1nc2ccccc2n1CC(=O)c1ccc(NC(=O)[C@@H](N)CCCCN)cc1` [Example 1, S-2,6-diamino-hexanoic acid [4-(2-{2-[4-(2-cyano-ethylamino)-furazan-3-yl]-benzoimidazol-1-yl}-acetyl)-phenyl]-amide] gave an MTD in series [4] of 21 mg/kg. For the same compound, the solubility kinetic at 6 h was more than 200 µM in series [1] (pH 3.0 buffer), more than 200 µM in series [1] (pH 5.0 buffer) and 190 µM (≈ 98 µg/mL) in series [1] (pH 6.5 buffer). Moreover, the “final T/C (ratio of tumor volume in the treatment group vs. the control group) at day 24” value in series [5] was determined as 34%. Besides, the “final T/C (day 24)” value in series [5] (parent drug 2.7 mg/kg) was 26%. Moreover, the AUC(0-t) in series [6] (plasma, analyte Example 1 (free base), after i.v. 19.6 mg Example 1, xenografted mice, read-out: AUClast of Example 1 in plasma) was 21100 ng·h/mL; in series [6] (tumor, analyte Example 1 (free base), after i.v. 19.6 mg Example 1, xenografted mice, read-out: AUClast of Example 1 in tumors), 29300 ng·h/mL. Besides, the Cmax in series [6] (plasma, analyte Example 1 (free base), after i.v. 19.6 mg Example 1, xenografted mice, read-out: Cmax of Example 1 in plasma) is 81900 ng/mL; in series [6] (tumor, analyte Example 1 (free base), after i.v. 19.6 mg Example 1, xenografted mice, read-out: Cmax of Example 1 in tumors) it was 6010 ng/mL. The half-life in series [6] (plasma, analyte Example 1 (free base), after i.v. 19.6 mg Example 1, xenografted mice, read-out: T1/2 of Example 1 in plasma (converted)) is 5.5 h; in series [6] (tumor, analyte Example 1 (free base), after i.v. 19.6 mg Example 1, xenografted mice, read-out: T1/2 of Example 1 in tumors (converted)) it was 9.6 h.
In the case of `CC(C)C[C@H](N)C(=O)Nc1ccc(C(=O)Cn2c(-c3nonc3NCCC#N)nc3ccccc32)cc1` [Example 11], the figures for the solubility kinetic at 6 h in series [1] (pH 3.0 buffer), in series [1] (pH 5.0 buffer) and in series [1] (pH 6.5 buffer) were 189 µM (≈ 94.6 µg/mL), 37 µM (≈ 18.5 µg/mL) and 20 µM (≈ 10 µg/mL), respectively.
The like results for `N#CCCNc1nonc1-c1nc2ccccc2n1CC(=O)c1ccc(NC(=O)CN)cc1` [Example 3] were, in that order, more than 200 µM, 71 µM (≈ 31.6 µg/mL) and 106 µM (≈ 47.1 µg/mL).

(Values after patent US8802858B2, “Furazanobenzimidazoles as prodrugs to treat neoplastic or autoimmune diseases” (Basilea Pharmaceutica AG, priority 2009, dated 2014).)
